# Key:
# glucocorticoid receptors [1] = settings: versus other steroid receptors, particularly mineralocorticoid; TEUTSCH et al. 1981; cited from earlier work
# [2] = biological target: T1, glucocorticoid receptors of cytosol of rat thymus (Rattus norvegicus, UniProt P06536); assay: Fixation on glucocorticoid receptors of rat thymus cytosol (carbon-dextran adsorption); format: binding
# T1 construct: carbon-dextran adsorption
# T1 sequence (P06536 1-795): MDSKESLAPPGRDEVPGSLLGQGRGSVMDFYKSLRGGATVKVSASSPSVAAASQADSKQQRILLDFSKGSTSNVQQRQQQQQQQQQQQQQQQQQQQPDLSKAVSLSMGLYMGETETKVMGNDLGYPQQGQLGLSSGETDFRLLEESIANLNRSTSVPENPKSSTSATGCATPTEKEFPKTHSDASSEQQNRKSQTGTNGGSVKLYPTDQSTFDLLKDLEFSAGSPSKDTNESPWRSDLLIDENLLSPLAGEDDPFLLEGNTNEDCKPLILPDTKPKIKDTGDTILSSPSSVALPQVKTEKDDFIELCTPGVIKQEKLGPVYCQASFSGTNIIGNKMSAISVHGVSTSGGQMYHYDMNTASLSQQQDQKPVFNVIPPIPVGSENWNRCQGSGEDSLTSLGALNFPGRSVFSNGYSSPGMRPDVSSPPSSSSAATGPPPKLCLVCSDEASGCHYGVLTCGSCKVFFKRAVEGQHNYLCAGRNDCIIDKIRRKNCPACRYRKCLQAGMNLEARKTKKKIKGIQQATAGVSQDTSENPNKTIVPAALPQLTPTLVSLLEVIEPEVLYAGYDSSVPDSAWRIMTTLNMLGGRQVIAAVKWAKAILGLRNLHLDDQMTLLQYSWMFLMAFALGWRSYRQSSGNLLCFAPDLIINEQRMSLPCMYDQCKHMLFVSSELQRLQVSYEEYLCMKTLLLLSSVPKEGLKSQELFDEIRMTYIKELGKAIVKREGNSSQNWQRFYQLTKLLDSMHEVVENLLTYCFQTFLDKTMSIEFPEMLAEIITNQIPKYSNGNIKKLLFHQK
# Description: (§1) (d) At 0° C. and 15° C., product A forms complexes with thymus glucocorticoid receptors which are stable for at least 24 hours. […] For this reason, it permits the total number of glucocorticoid fixation sites to be determined in different physiological conditions.
# [3] = test system: glucocorticoid receptors of the hippocampus; assay: Dissociation from glucocorticoid receptors of hippocampus cytosol; format: binding
# plasmatic proteins = assay: Specific fixation on plasmatic proteins; format: binding; settings: animals or humans
# [4] = Stability and metabolism under in vitro incubation conditions; format: in vitro ADME; settings: for metabolism in vitro in certain tissues: working in vitro, incubation conditions
# Description: as §1
# glucocorticoid receptors [5] = assay: Selectivity of fixation on steroid receptors; format: binding; settings: compared with similar non-radioactive products
# Source text: 651-665 (1981)]. Otherwise, other natural or synthetic corticoids which are used for this type of experiment, simultaneously fix on other steroid receptors and particularly on mineralocorticoid receptors. However, during such experiments with non-radioactive 6-methyl-17α-(prop-1-ynyl)-Δ^1,4,6 -androstatriene-11β,17β-diol-3-one, particularly when the tissues […] examined included simultaneously glucocorticoid and mineralocorticoid receptors, it was often necessary to adopt a succession of long and complicated methods.
# Because of the radioactivity of the products of formula I, it is much easier to reveal the existence of the glucocorticoid receptors in the tissues of organs when mineralocorticoid receptors are also present, thanks to the use of the usual methods of liaison measurements taking advantage of radioactive products. In addition, what was not possible with a non-radioactive product, such, for example, as determining of the number of sites of fixation of the glucocorticoid receptors, becomes realizable by the use of the products of formula I.
# [6] = 0° C. and 15° C., 24 hours, thymus receptor incubation
compound,measurement,setting,value
"CC#CC1(O)CCC2C3C=C(C)C4=CC(=O)C=CC4(C)C3C(O)CC21C (stereo not drawn) [6-methyl-17α-(prop-1-ynyl)-Δ^1,4,6-androstatriene-11β,17β-diol-3-one]",selectivity of fixation on glucocorticoid receptors,glucocorticoid receptors [1],fixes selectively on the glucocorticoid receptors
"[3H]C([3H])([3H])C1=CC2C(C(O)CC3(C)C2CCC3(O)C#CC)C2(C)C=CC(=O)C=C12 (stereo not drawn) [Product A, 6-methyl-^3 H3-17α-(prop-1-ynyl)-Δ^1,4,6-androstatriene-11β,17β-diol-3-one]",non-specific fixation,"[2]; 0° C. and 15° C., 24 hours",only shows a weak non-specific fixation
same,constant of association (Ka),"[2]; 0° C., rat thymus cytosol, adsorption by carbon-dextran",~10^9 M^-1
same,constant of association relative to dexamethazone,"[2]; 0° C., rat thymus cytosol, compared with dexamethazone",about twice as high as that of dexamethazone
same,stability of complexes with thymus glucocorticoid receptors,[2]; at 0° C. and 15° C.,at least 24 hours
same,replacement of non-radioactive corticosterone and cortisol fixed on glucocorticoid receptors,[2]; incubation at 15° C. for 24 hours,totally replaces
same,shape of dissociation curve,[2]; thymus,a curve with one slope
same,speed of association (K+1),[2]; towards the glucocorticoid receptors,~10^6 M^-1 mn^-1
same,shape of dissociation curve,[3],a curve with one slope
same,specific fixation on plasmatic proteins,plasmatic proteins,does not give rise to any specific fixation
same,loss of tritium,[4]; [6],does not show any loss of tritium
same,metabolism under incubation conditions,[4]; [6],is not subject to metabolism
same,selective reactivity in respect of the glucocorticoid receptors,glucocorticoid receptors [5],the same selective reactivity
"C[C@]12C[C@H](O)[C@H]3[C@@H](CCC4=CC(=O)CC[C@@]43C)[C@@H]1CC[C@@H]2C(=O)CO [corticosterone, reference compound]",metabolism in vitro in certain tissues,[4],are metabolized in certain tissues
"C[C@]12CCC(=O)C=C1CC[C@@H]1[C@@H]2[C@@H](O)C[C@@]2(C)[C@H]1CC[C@]2(O)C(=O)CO [cortisol, reference compound]",metabolism in vitro in certain tissues,[4],are metabolized in certain tissues
^3 H-corticosterone [reference compound],shape of dissociation curve,[3],a dissociation curve with two slopes

# — patent US4664850A, “Novel radioactive steroids” (Roussel Uclaf, priority 1983, dated 1987)
